# In US6153745A, “Relating to mutagenesis of nucleic acids” (Amersham Pharmacia Biotech UK Limited, priority 1995, dated 2000):
# “Also recorded” adds a separate entry of the source. Like-named read-outs stand apart in the source and are kept apart here.
# Assays:
# Taq Polymerase [1] = biological target: T1, Taq Polymerase (Thermus aquaticus, UniProt P19821); settings: cited from earlier work
# Taq Polymerase [2] = biological target: T1, Taq Polymerase; assay: Substrate for Taq polymerase in PCR, replacing normal dNTPs; assay type: biochemical
# Experimental: All dNTPs were at 500 μM, except in sample 4 and 7 where dPTP was at 1 mM.
# B) The PCR reaction mix included: dATP, dCTP and TTP at 500 μm. Samples 1 to 4 contained dGTP at 50 μM, 25 μM, […] and 6.25 μM respectively, and 8-oxodGTP at 500 μM. Samples 5 to 8 contained the same decreasing amounts of dGTP but no 8-oxodGTP;
# Lanes 5 to 8 show the PCR products obtained using the same conditions but in the absence of 8-oxodGTP.
# Taq Polymerase [3] = biological target: T1, Taq Polymerase; assay: Steady state kinetics of insertion opposite template A or G, primed synthetic oligonucleotide templates; assay type: biochemical; settings: for Relative Efficiency / Vmax /Km / Vmax^(rel): 55° C.
# Excerpt: FIGS. 5A-D show (Top): Plots of initial velocities against [dNTP] for the incorporation by Taq polymerase of dPTP opposite A (A), TTP opposite A (B), dPTP opposite G (C), and dCTP opposite G (D).
# In order to compare the relative efficiencies of insertion of dPTP opposite template adenine and guanine residues respectively, we adopted the procedure of Boosalis et al. (Boosalis et al., 1987 J. Biol. Chem. 262, 14689-14696) for the determination of steady state kinetics using one of two primed synthetic oligonucleotide templates (FIG. 5). The ^32 P-labelled primer in each case was extended by the incorporation of dGTP at two positions, followed by dPTP (template 1 and 2), TTP (template 1) or dCTP (template 2). Separation of the products by PAGE followed by quantitation of the radioactivity using a PhosphorImager allowed the determination of the initial velocities (Boosalis et al., 1987). Due to the very high extension rate of Taq polymerase, the kinetic parameters were determined at 55° C. The velocities for the insertion of the particular triphosphate opposite template (Vmax) and Km values (μM) for particular insertions were determined from non-linear regression fitting to the Michaelis-Menten equation.
# [4] = Singer et al. 1989; cited from earlier work
# target DNA sequence MH22 = assay: PCR mutagenesis of target DNA, cloning and sequencing; assay type: biochemical; settings: for Number of point mutations, coding / Number of point mutations, silent / Number of point mutations, total: bases sequenced: dPTP 4093, 8-oxodGTP 5463, dPTP & 8-oxodGTP 3751; for additional (unexpected) mutations found: dPTP: out of 4093 bp, 8-oxodGTP: out of 5463 bp; for linear relation of mutation frequency with number of PCR cycles, up to: equimolar
# Experimental: The four normal dNTPs and the analogues were used in equimolar amounts (500 μM);
# Data obtained after different number of PCR cycles have been pooled and figures express percentage of total number of mutations;
# Numbers at the top of the Table indicate how many times a particular codon is present in the target sequence. Open squares indicate single point mutations within a particular codon. Filled circles indicate two point mutations within a particular codon. […] Squares in shaded areas indicate silent mutations;
# Filled in symbols indicate a single nucleotide change within a codon, open symbols denote two nucleotide changes within the same codon. […] Amino acids are grouped in five classes according to their physico-chemical characteristics: glycine, non-polar, polar, positively charged, and negatively charged.
# The first number at the 5'-end of each sequence indicates how many PCR cycles were allowed in the presence of the analogue(s). The second number identifies different clones.
# In order to investigate the mutations resulting when dPTP or 8oxodGTP was used in DNA synthesis reactions, PCR reactions were set up in which dPTP was added in equimolar concentrations to the four normal dNTPs. The DNA was amplified for a variable number of cycles and, in order to eliminate the incorporated base analogues, an aliquot of the amplified DNA was used as template in a second PCR amplification in which only the four normal dNTPs were used. The PCR product was subsequently cloned, and some of the clones sequenced (in this way, the pattern of mutation was not influenced by the DNA repair mechanisms of the E. coli host).
# DNA amplification reactions were carried out for variable number of cycles, as indicated in FIGS. 11A-11C by the number preceding the point in the clone designation.
# For mutagenesis experiments, 10 fmoles of template DNA were amplified using 0.5 μl of AmpliTaq polymerase (5 U/μl, Applied Biosystems) in a 20 μl reaction containing the appropriate sense and antisense […] at 0.5 μM, 2 mM MgCl2, 10 mM Tris-HCl pH8.3, 50 mM KCl, 1 g/l gelatine and dATP, dCTP, dGTP, TTP, dPTP and/or 8-oxodGTP, each at 500 μM. After various cycles (92° C. for 1 min, 55° C. for 1.5 min, 75° C. for 5 min), 1 μl of the amplified material was used in a second PCR in which the same conditions as above were used except that no dPTP or 8-oxodGTP were added to the reaction mixture. The product of the second PCR was digested with BstEII and PstI and cloned into M13VHPCRl vector (Jones et al., 1986 Nature 321, 522-525).
# [5] = tested on: E.coli DNA polymerase I Klenow fragment; settings: 37° C., Purmal et al., 1994, cited from earlier work
# [6] = tested on: thermostable Tth DNA polymerase; settings: Pavlov et al., 1994; cited from earlier work
# TEM-1 β-lactamase = biological target: T2, TEM-1 β-lactamase (Escherichia coli, UniProt P62593); assay: Cefotaxime resistance / hydrolytic activity of TEM-1 β-lactamase and mutants in E. coli; assay type: cell-based; settings: wild type TEM-1
# T2 construct: mutants cloned in pBC KS+
# T2 sequence (P62593 24-286 limits assumed): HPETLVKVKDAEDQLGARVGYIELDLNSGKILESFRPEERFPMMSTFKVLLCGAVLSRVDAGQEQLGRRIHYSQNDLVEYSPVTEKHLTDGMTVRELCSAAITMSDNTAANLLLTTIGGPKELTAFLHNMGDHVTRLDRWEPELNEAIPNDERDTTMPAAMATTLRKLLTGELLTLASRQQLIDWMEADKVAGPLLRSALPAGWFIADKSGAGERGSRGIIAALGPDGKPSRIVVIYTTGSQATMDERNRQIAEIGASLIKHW
# Experimental: In this experiment we set to improve the hydrolytic activity of the enzyme TEM-1 β-lactamase on the poorly hydrolysed substrate cefotaxime [minimum inhibitory concentration (MIC)=0.02 μg/ml] by repeated rounds of random mutagenesis and selection on increasing concentrations of the antibiotic. The best mutants selected in the first round are subjected to a second round of mutagenesis and selection in the presence of higher concentration of antibiotic. A stepwise improvement of the efficiency of TEM-1 hydrolytic activity is attained by progressively increasing the selective pressure.
# The wild type TEM-1 gene from the plasmid pBR322 was used as a template for PCT amplification in the presence of dPTP and 8-oxodGTP in addition to the four normal dNTPs. The pool of mutants generated was cloned in the vector pBC KS^+ and the library of mutants transformed in E. coli by electroporation. […] Selected mutant were analysed by sequencing and the results of the first round of mutagenesis and selection are shown in Table 3A. A different number of cycles of the mutagenic PCT was used to generate four independent libraries of mutants (libA, libB, libC and libD) each characterised by a different frequency of mutation (0.3% for libA, 0.3% for libB, 1.8% for libC and 6.3% for libD), as determined by sequence analysis of unselected clones. […]
# T1 sequence (P19821 whole entry): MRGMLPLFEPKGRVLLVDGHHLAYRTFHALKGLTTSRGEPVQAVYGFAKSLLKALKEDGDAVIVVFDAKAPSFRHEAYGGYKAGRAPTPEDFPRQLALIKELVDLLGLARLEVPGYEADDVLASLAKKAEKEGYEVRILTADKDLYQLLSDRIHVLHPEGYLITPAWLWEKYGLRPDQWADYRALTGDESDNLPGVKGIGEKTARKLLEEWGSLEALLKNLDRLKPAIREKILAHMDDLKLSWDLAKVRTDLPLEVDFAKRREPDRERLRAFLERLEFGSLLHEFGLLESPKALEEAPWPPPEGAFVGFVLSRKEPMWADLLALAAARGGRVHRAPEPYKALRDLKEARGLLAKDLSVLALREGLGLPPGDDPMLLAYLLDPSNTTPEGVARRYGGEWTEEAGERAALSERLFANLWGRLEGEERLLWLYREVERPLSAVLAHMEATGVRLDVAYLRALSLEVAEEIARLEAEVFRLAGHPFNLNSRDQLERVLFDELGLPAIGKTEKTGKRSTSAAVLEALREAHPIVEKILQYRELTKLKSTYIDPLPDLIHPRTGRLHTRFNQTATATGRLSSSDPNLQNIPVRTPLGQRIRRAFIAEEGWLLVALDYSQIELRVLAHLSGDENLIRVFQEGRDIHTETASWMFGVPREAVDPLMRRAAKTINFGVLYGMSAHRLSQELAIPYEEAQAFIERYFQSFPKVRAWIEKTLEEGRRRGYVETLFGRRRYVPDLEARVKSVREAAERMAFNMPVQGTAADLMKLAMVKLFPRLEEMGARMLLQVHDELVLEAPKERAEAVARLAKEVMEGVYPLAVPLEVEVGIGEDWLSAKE
structure (smiles),measurement,setting,value
O=C1NC2=NOCCC2=CN1[C@H]1C[C@H](O)[C@@H](CO)O1 [P],recognition of template DNA containing the analogue by polymerases,Taq Polymerase [1],recognised by polymerases such as Taq polymerase in PCR and Sequenase™ in DNA sequencing
"CON=c1[nH]c(N)nc2c1ncn2[C@H]1C[C@H](O)[C@@H](COP(=O)(O)OP(=O)(O)OP(=O)(O)O)O1 [dKTP, 2-Amino-9-(2-deoxy-β-D-erythropentofuranosyl)-6-methoxyaminopurine 5'-triphosphate]",replacement of dATP and dGTP in PCR,"Taq Polymerase [2]; 350 base pair DNA, 30 cycles","could replace dATP and dGTP, but only to a limited extent"
Cc1cn([C@H]2C[C@H](O)[C@@H](COP(=O)(O)OP(=O)(O)OP(=O)(O)O)O2)c(=O)[nH]c1=O [TTP],Relative Efficiency,Taq Polymerase [3]; template A,1.00
same,Vmax /Km,Taq Polymerase [3]; template A,167000 M⁻¹
same,Vmax^(rel),Taq Polymerase [3]; template A,1.02 ± 0.11
CCOc1nc(=O)c(C)cn1[C@H]1C[C@H](O)[C@@H](COP(=O)(O)OP(=O)(O)OP(=O)(O)O)O1 [O^2 -ethylthymidine triphosphate],A→T transversions induced,[4],"induces A→T transversions, albeit at a low frequency"
"O=P(O)(O)OP(=O)(O)OP(=O)(O)OC[C@H]1O[C@@H](n2cnc3c(O)ncnc32)C[C@@H]1O [dITP, deoxyinosine triphosphate]",substrate quality for Taq polymerase,Taq Polymerase [1]; prior art,poor substrate for Taq Polymerase and cannot support DNA synthesis when replacing any of the four normal dNTPs
"Nc1nc2c(nc(O)n2[C@H]2C[C@H](O)[C@@H](COP(=O)(O)OP(=O)(O)OP(=O)(O)O)O2)c(=O)[nH]1 [8-oxodGTP, 2'-Deoxy-8-hydroxyguanosine 5'-triphosphate]",types of mutation produced,target DNA sequence MH22,two transversions (A→C and T→G)
same,A→C transversions of total mutations,"target DNA sequence MH22; 500 μM, pooled cycles",38.8%
same,T→G transversions of total mutations,"target DNA sequence MH22; 500 μM, pooled cycles",59%
same,codons replaced,"target DNA sequence MH22; 8 mutant clones, equimolar with dNTPs",18 codons
same,"Number of point mutations, coding",target DNA sequence MH22,65
same,"Number of point mutations, silent",target DNA sequence MH22,16
same,"Number of point mutations, total",target DNA sequence MH22,91
same,additional (unexpected) mutations found,target DNA sequence MH22,One C→A transversion; also recorded: two A→G transitions and one G→A transition
same,"linear relation of mutation frequency with number of PCR cycles, up to",target DNA sequence MH22; 500 μM,≥ 30 cycles
same,incorporation into DNA and its extension,"Taq Polymerase [2]; normal or limiting dGTP, higher 8-oxodGTP",some incorporation into DNA and its extension could be demonstrated
same,Km,[5]; read-out: Km for insertion opposite A,58 µM
same,Km,[5]; read-out: Km for insertion opposite C,63 µM
same,A→C transversions rate,[6],approximately 1%
CO/N=C(\C(=O)N[C@@H]1C(=O)N2C(C(=O)O)=C(COC(C)=O)CS[C@H]12)c1csc(N)n1 [cefotaxime],minimum inhibitory concentration (MIC),TEM-1 β-lactamase,0.02 µg/mL
Nc1ccn([C@H]2C[C@H](O)[C@@H](COP(=O)(O)OP(=O)(O)OP(=O)(O)O)O2)c(=O)n1 [dCTP],Relative Efficiency,Taq Polymerase [3]; template G,1.00
same,Vmax^(rel),Taq Polymerase [3]; template G,1.01 ± 0.09
"O=C1NC2=NOCCC2=CN1[C@H]1C[C@H](O)[C@@H](COP(=O)(O)OP(=O)(O)OP(=O)(O)O)O1 [dPTP, 6-(2-deoxy-β-D-erythropentofuranosyl)-3,4-dihydro-8H-pyrimido-[4,5-c][1,2]oxazine-7-one 5'-triphosphate]",mutagenic efficiency compared,target DNA sequence MH22,much more efficient mutagen than 8-oxodGTP
same,types of mutation produced,target DNA sequence MH22,"four transitions (A→G, T→C, G→A and C→T)"
same,A→G mutations of total mutations,"target DNA sequence MH22; 500 μM, pooled cycles",46.6%
same,C→T mutations of total mutations,"target DNA sequence MH22; 500 μM, pooled cycles",8%
same,G→A mutations of total mutations,"target DNA sequence MH22; 500 μM, pooled cycles",9.2%
same,T→C mutations of total mutations,"target DNA sequence MH22; 500 μM, pooled cycles",35.5%
same,"codons mutated to alternative ones, out of 43 codons present","target DNA sequence MH22; 12 mutant clones, equimolar with dNTPs",40 codons
same,"Number of point mutations, coding",target DNA sequence MH22,318
same,"Number of point mutations, silent",target DNA sequence MH22,66
same,"Number of point mutations, total",target DNA sequence MH22,384
same,additional (unexpected) mutations found,target DNA sequence MH22,one T→G and two A→T transversions
same,"linear relation of mutation frequency with number of PCR cycles, up to",target DNA sequence MH22; 500 μM,20 cycles
same,replacement of TTP in PCR,"Taq Polymerase [2]; 350 base pair DNA, 30 cycles",could completely replace TTP and yield amounts of product comparable to those obtained using the four normal triphosphates
same,replacement of dCTP in PCR,"Taq Polymerase [2]; 350 base pair DNA, 30 cycles",could replace dCTP to some extent
same,incorporation efficiency opposite template adenine versus guanine,Taq Polymerase [3],approximately three times more efficiently opposite template adenine than guanine residues
same,recognition by Taq polymerase compared with TTP,Taq Polymerase [3],virtually indistinguishable from TTP in terms of its recognition by Taq polymerase
same,Relative Efficiency,Taq Polymerase [3]; template A,0.99
same,Vmax /Km,Taq Polymerase [3]; template A,165000 M⁻¹
same,Vmax^(rel),Taq Polymerase [3]; template A,0.86 ± 0.06
same,Relative Efficiency,Taq Polymerase [3]; template G,0.11
same,Vmax /Km,Taq Polymerase [3]; template G,57000 M⁻¹
same,Vmax^(rel),Taq Polymerase [3]; template G,0.69 ± 0.08
CON=c1[nH]c(N)nc2c1ncn2[C@H]1C[C@H](O)[C@@H](CO)O1 [K],recognition of template DNA containing the analogue by polymerases,Taq Polymerase [1],recognised by polymerases such as Taq polymerase in PCR and Sequenase™ in DNA sequencing
